Measured values published in patent US4183929A, “Tri-substituted triazines” (American Cyanamid Company, priority 1978, dated 1980).

Columns and labels:
[1] = system: late components of human complement (C3-C9); assay: Test, Code 035 (C3-C9 inhibitor), lysis of EAC 142; type: biochemical; conditions: Table I; twofold serial dilution
Excerpt: (§1) An active inhibitor protects C2 from C1 and C4; (ii) Test, Code 035 (C3-C9 inhibitor) - This test determines the ability of the late components of human complement (C3-C9) to lyse EAC 142 in the presence of appropriate dilutions of the test compound. An active inhibitor protects EAC 142 from lysis by human C3-C9; (iii) Test, Code 036 (C-Shunt inhibitor) - In this test human erythrocytes rendered fragile are lysed in autologous serum via the shunt pathway activated by cobra venom factor in the presence of appropriate dilutions of the test compound. Inhibition of the shunt pathway results in failure of lysis; (iv) Forssman Vasculitis Test - Here, the well known complement dependent lesion, Forssman vasculitis, is produced in guinea pigs by intradermal injection of rabbit anti-Forssman antiserum. The lesion is measured in terms of diameter, edema and hemorrhage and the extent to which a combined index of these is inhibited by prior intraperitoneal injection of the test compound at 200 mg is then reported, unless otherwise stated; (v) Forssman Shock Test--Lethal shock is produced in guinea pigs by an i.v. injection of anti-Forssman antiserum and the harmonic mean death time of treated guinea pigs is compared with that of simultaneous controls; (vi) Complement Level Reduction Test - In this test, the above dosed guinea pigs, or others, are bled for serum and the complement level is determined in undiluted serum by the capillary tube method of U.S. Pat. No. 3,876,376 and compared to undosed control guinea pigs; and (vii) Cap 50 Test - Here, appropriate amounts of the test compound are added to a pool of guinea pig serum in vitro, after which the undiluted serum capillary tube assay referred to above is run. The concentration of compound inhibiting 50% is reported.

[2] = system: citrated sheep plasma (CSP); assay: In vitro anti-coagulant activity (AC) test; type: biochemical; conditions: for AC Wells: Table I, twofold serial dilution, recalcified citrated sheep plasma; for In Vitro Activity Anti-Coagulant Activity (Wells) AC: Table II
Method: The sheep RBC's, kept in suspension throughout the slotting incubation time, become enmeshed in the fibrin matrix if a clot forms. Upon centrifugation of the plate, untrapped RBC's form buttons, the sizes of which correspond to the degree of clot inhibition; this providing a measure of anti-coagulant activity (AC).

[3] = target: T1, activated human C1 (Homo sapiens, UniProt P09871); assay: Test, Code 026 (C1 inhibitor); type: biochemical; conditions: for Cl 026 Wells: Table I, twofold serial dilution, higher well number indicates higher activity; for In Vitro Activity Complment Inhibiting Activity (Wells) Code 026: Table II
T1 construct: fluid-phase human C2 consumption with C4 present
T1 sequence (P09871 16-688): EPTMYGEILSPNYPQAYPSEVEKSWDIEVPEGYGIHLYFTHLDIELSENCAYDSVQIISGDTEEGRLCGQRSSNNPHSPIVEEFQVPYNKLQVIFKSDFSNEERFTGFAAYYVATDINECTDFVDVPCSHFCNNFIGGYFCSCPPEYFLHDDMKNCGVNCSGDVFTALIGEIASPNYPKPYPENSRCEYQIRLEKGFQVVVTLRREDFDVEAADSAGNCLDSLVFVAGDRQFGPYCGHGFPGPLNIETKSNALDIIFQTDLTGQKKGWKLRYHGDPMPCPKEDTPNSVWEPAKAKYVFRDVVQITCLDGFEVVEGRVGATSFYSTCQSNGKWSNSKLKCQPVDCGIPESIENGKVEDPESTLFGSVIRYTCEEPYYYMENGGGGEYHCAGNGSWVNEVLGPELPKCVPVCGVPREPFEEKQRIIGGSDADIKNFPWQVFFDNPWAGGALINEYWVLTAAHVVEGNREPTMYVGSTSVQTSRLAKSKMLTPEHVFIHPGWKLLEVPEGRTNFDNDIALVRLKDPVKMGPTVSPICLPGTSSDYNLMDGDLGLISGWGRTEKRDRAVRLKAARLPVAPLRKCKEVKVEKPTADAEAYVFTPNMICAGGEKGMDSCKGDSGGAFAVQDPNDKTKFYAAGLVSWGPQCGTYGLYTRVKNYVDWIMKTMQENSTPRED
T1 sequence (P00736 18-705 partner): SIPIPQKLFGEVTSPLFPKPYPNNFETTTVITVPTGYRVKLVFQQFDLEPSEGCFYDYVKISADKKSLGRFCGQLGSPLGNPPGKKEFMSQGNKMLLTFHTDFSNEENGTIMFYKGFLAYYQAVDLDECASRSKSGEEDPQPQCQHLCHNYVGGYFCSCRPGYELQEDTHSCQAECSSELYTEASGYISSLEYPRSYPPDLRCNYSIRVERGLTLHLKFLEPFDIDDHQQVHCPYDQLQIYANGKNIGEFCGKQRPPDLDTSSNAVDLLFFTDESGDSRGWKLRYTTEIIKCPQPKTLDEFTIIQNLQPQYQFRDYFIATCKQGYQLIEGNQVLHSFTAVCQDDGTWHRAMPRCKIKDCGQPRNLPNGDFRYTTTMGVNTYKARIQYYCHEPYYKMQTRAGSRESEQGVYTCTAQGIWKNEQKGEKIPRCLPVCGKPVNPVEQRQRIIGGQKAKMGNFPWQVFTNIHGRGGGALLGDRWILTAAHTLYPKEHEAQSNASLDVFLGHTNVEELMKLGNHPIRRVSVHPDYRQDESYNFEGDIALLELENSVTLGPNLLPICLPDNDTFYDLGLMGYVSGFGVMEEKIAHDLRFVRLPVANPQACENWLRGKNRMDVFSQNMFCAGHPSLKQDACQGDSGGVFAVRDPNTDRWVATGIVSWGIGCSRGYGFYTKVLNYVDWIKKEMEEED
T1 sequence (P02745 23-245 partner): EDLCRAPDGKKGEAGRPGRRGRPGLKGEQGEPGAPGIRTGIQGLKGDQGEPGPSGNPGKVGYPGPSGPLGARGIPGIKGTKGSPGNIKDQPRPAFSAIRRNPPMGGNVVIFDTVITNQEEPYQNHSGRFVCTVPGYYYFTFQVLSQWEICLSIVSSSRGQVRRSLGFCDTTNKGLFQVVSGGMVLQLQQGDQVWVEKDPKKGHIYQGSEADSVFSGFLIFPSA
T1 sequence (P02746 28-253 partner): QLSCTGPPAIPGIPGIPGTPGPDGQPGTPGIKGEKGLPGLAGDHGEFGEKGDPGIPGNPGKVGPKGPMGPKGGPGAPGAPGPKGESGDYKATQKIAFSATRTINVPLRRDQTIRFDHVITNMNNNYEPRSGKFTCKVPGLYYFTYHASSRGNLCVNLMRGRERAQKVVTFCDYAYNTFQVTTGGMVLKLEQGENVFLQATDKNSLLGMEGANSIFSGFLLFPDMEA
T1 sequence (P02747 29-245 partner): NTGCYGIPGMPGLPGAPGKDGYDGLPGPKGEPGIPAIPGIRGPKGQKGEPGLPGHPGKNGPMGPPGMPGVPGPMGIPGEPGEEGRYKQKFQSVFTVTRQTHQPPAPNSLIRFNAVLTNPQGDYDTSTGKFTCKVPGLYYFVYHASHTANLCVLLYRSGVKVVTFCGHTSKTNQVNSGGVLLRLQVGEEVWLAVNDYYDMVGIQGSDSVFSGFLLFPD
Excerpt: as §1

[4] = Intrinsic Therapeutic Index (ITI) from Code 026 and AC wells; conditions: Table II; for Logarithmic Difference Expressed As Wells: Code 026 wells minus AC wells (base 2); for Intrinsic Therapeutic Index: antilogarithm (base 2) of the difference of Code 026 and AC wells
Excerpt: The computation of an Intrinsic Therapeutic Index (ITI) was devised to correlate the results expressed in wells obtained in the in vitro Code 026 (C1 inhibitor) test and the in vitro anti-coagulant (AC) test into a meaningful value which would aid in the net evaluation of the activity of the compounds of this invention.
The ITI is thus a measure of the separation of anti-complement and anti-coagulant activities; the higher the numerical value the more therapeutically useful the separation of activities.

[5] = system: shunt pathway; assay: Test, Code 036 (C-Shunt inhibitor), lysis of human erythrocytes via cobra venom factor activated shunt pathway; type: cell-based; conditions: Table I; twofold serial dilution
Excerpt: An active inhibitor protects C2 from C1 and C4; (ii) Test, Code 035 (C3-C9 inhibitor) - This test determines the ability of the late components of human complement (C3-C9) to lyse EAC 142 in the presence of appropriate dilutions of the test compound. An active inhibitor protects EAC 142 from lysis by human C3-C9; (iii) Test, Code 036 (C-Shunt inhibitor) - In this test human erythrocytes rendered fragile are lysed in autologous serum via the shunt pathway activated by cobra venom factor in the presence of appropriate dilutions of the test compound. Inhibition of the shunt pathway results in failure of lysis; (iv) Forssman Vasculitis Test - Here, the well known complement dependent lesion, Forssman vasculitis, is produced in guinea pigs by intradermal injection of rabbit anti-Forssman antiserum. […]

| Structure (SMILES) | C-Late 035 Wells [1] | AC Wells [2] | In Vitro Activity Anti-Coagulant Activity (Wells) AC [2] | Cl 026 Wells [3] | In Vitro Activity Complment Inhibiting Activity (Wells) Code 026 [3] | Logarithmic Difference Expressed As Wells [4] | Intrinsic Therapeutic Index [4] | Shunt Inhibition 036 Wells [5] |
| --- | --- | --- | --- | --- | --- | --- | --- | --- |
| O=C([O-])c1cc(Nc2nc(Nc3cc(C(=O)[O-])cc(C(=O)[O-])c3)nc(Nc3cc(C(=O)[O-])cc(C(=O)[O-])c3)n2)cc(C(=O)[O-])c1.[Na+].[Na+].[Na+].[Na+].[Na+].[Na+] [5,5',5"-(s-Triazine-2,4,6-triyltriimino)triisophthalic acid hexasodium salt] | N | -2 Wells | -2 Wells |  |  |  |  |  |
| O=C([O-])c1cc(Nc2nc(Cl)nc(Nc3cc(C(=O)[O-])cc(C(=O)[O-])c3)n2)cc(C(=O)[O-])c1.[Na+].[Na+].[Na+].[Na+] [5,5'-[(6-Chloro-s-triazine-2,4-diyl)diimino]-diisophthalic acid tetrasodium salt] | N | < -2 Wells | -2 Wells | +3 Wells | +3 Wells | +5 Wells | 32 | N |
| O=C(O)CN(CC(=O)O)c1nc(N(CC(=O)O)CC(=O)O)nc(N(CC(=O)O)CC(=O)O)n1 [(s-Triazine-2,4,6-triyltrinitrilo)hexaacetic acid] | N | -2 Wells | -2 Wells | +3 Wells | +3 Wells | +5 Wells | 32 | N |
